The source of these data is patent US8637508B2, “Heterocyclic derivatives and their use in the treatment of neurological disorders” (Novartis AG, priority 2011, dated 2014).

As a reminder, the IC50 is the midpoint of a concentration-inhibition curve.

Assay [1] has as its target human BACE-2 (Homo sapiens (Human), UniProt Q9Y5Z0). Description: Test 2: Inhibition of human BACE-2. In kind it is biochemical. From the text: Test 2: Inhibition of Human BACE-2
Assay [2] has as its target human BACE-1 (Homo sapiens (Human), UniProt P56817). Description: Test 1: Inhibition of human BACE-1.
Setting [3] is: mean IC50, recombinant BACE-2, acetate buffer pH 4.5, fluorescence-quenched peptide substrate, read-out: BACE-2 IC50.
The mark [4] stands for this setting: read-out: BACE-1 IC50, mean IC50, recombinant BACE-1, acetate buffer pH 4.5, fluorescence-quenched peptide substrate.

Structures can show the parent of a compound that is named as a salt. Where two headings read alike, the source gives them in different places. A value given as a limit tells only on which side of the number the result lay.

human BACE-1, sequence (P56817 46-457): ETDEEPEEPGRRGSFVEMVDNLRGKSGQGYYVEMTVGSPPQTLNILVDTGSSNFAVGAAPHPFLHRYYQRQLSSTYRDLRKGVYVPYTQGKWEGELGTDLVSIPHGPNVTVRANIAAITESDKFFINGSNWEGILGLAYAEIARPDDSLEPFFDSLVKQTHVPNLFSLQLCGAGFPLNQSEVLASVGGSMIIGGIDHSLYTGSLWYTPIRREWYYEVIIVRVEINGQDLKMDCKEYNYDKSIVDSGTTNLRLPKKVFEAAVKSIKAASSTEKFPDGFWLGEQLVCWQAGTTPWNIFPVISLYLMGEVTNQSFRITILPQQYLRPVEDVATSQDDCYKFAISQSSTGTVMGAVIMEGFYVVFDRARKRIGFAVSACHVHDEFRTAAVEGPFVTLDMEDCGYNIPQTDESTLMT
human BACE-2, sequence (Q9Y5Z0 63-473): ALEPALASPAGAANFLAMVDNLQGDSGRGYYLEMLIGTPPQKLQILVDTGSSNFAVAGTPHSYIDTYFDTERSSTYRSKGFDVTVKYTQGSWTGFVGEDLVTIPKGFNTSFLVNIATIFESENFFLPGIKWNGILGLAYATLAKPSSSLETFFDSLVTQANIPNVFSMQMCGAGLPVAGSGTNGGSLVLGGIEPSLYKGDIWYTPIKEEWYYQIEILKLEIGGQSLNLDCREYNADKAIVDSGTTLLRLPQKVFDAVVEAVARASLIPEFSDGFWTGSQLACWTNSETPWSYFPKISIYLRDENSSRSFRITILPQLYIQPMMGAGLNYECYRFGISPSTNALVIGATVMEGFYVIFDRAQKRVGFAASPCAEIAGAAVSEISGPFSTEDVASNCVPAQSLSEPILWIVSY

On to `Cc1cc(C#N)cnc1C(=O)Nc1cc([C@]2(C)COC(CF)(CF)C(N)=N2)c(F)cn1` [Example 37, 5-Cyano-3-methyl-pyridine-2-carboxylic acid [4-((R)-5-amino-6,6-bis-fluoromethyl-3-methyl-3,6-dihydro-2H-[1,4]oxazin-3-yl)-5-fluoro-pyridin-2-yl]-amide], for which the results for the half-inhibitory concentration (IC50) in assay [1] (setting [3]) and in assay [2] (setting [4]) were 430 nM and 380 nM, respectively.
Consider `C[C@@]1(c2cccc(NC(=O)c3ncc(OCC(F)(F)F)nc3N)n2)CO[C@@](C)(C(F)(F)F)C(N)=N1` [Example 23, 3-Amino-5-(2,2,2-trifluoro-ethoxy)-pyrazine-2-carboxylic acid [6-((3R,6R)-5-amino-3,6-dimethyl-6-trifluoromethyl-3,6-dihydro-2H-[1,4]oxazin-3-yl)-pyridin-2-yl]-amide], for which the IC50 is above 10000 nM in assay [1] (setting [3]) and 1200 nM in assay [2] (setting [4]).
In the same order, the values of `Cc1cc(OCF)cnc1C(=O)Nc1ccc(F)c([C@]2(C)CO[C@@](C)(C(F)(F)F)C(N)=N2)n1` [Example 32, 5-Fluoromethoxy-3-methyl-pyridine-2-carboxylic acid [6-((3R,6R)-5-amino-3,6-dimethyl-6-trifluoromethyl-3,6-dihydro-2H-[1,4]oxazin-3-yl)-5-fluoro-pyridin-2-yl]amide] are 7 nM and 45 nM.
For the compound `C[C@@]1(c2cccc(NC(=O)c3ccc(C#N)cn3)n2)CO[C@@](C)(C(F)(F)F)C(N)=N1` [Example 10, 5-Cyano-pyridine-2-carboxylic acid [6-((3R,6R)-5-amino-3,6-dimethyl-6-trifluoromethyl-3,6-dihydro-2H-[1,4]oxazin-3-yl)-pyridin-2-yl]-amide], the IC50 in assay [2] (setting [4]) was 39 nM.
As to `Cc1cnc(C(=O)Nc2ccc(F)c([C@]3(C)CO[C@@](C)(C(F)(F)F)C(N)=N3)n2)cn1` [Example 33, 5-Methyl-pyrazine-2-carboxylic acid [6-((3R,6R)-5-amino-3,6-dimethyl-6-trifluoromethyl-3,6-dihydro-2H-[1,4]oxazin-3-yl)-5-fluoro-pyridin-2-yl]amide], the figures for the IC50 in assay [1] (setting [3]) and in assay [2] (setting [4]) were 330 nM and 820 nM, respectively.
The compound `[2H]c1nc(C(=O)Nc2cc(C3(CF)COCC(N)=N3)ccn2)c(C([2H])([2H])[2H])c([2H])c1Cl` (stereo not drawn) [Example 13, 5-{2-[(5-Chloro-4,6-dideutero-3-trideuteromethyl-pyridine-2-carbonyl)-amino]-pyridin-4-yl}-5-fluoromethyl-5,6-dihydro-2H-[1,4]oxazin-3-yl-ammonium acetate] came in with a 50% inhibitory concentration (IC50) in assay [1] of 1500 nM.
Consider `[2H]c1nc(C(=O)Nc2cccc([C@]3(C)CO[C@@](C)(C(F)(F)F)C(N)=N3)n2)c(C([2H])([2H])[2H])c([2H])c1Cl` [Example 21, 5-Chloro-4,6-dideuterio-3-trideuteriomethyl-pyridine-2-carboxylic acid [6-((3R,6R)-5-amino-3,6-dimethyl-6-trifluoromethyl-3,6-dihydro-2H-[1,4]oxazin-3-yl)-pyridin-2-yl]-amide], for which the IC50 is 8 nM in assay [1] and 31 nM in assay [2].
As to `COCCn1ccc2nc(C(=O)Nc3ccc(F)c([C@]4(C)CO[C@@](C)(C(F)(F)F)C(N)=N4)n3)c(N)nc21` [Example 43, 3-Amino-5-(2-methoxy-ethyl)-5H-pyrrolo[2,3-b]pyrazine-2-carboxylic acid [6-((3R,6R)-5-amino-3,6-dimethyl-6-trifluoromethyl-3,6-dihydro-2H-[1,4]oxazin-3-yl)-5-fluoro-pyridin-2-yl]amide], the half-inhibitory concentration (IC50) in assay [1] is above 10000 nM; in assay [2] (setting [4]) it was 1200 nM.
Regarding `C[C@]1(c2cccc(NC(=O)c3ccc(C#N)cn3)n2)CO[C@@](C)(C(F)(F)F)C(N)=N1` [Example 9, 5-Cyano-pyridine-2-carboxylic acid [6-((3S,6R)-5-amino-3,6-dimethyl-6-trifluoromethyl-3,6-dihydro-2H-[1,4]oxazin-3-yl)-pyridin-2-yl]-amide hydrochloride], in assay [2] (setting [4]), the half-maximal inhibitory concentration (IC50) was found to be 6200 nM.
